Data as given in patent US20090099218A1, “SYNTHESIS OF NOVEL TUBULIN POLYMERIZATION INHIBITORS: BENZOYLPHENYLUREA (BPU) SULFUR ANALOGS” (priority 2007, published 2009).

Key:
tubulin = experiment: Inhibition of tubulin polymerization; assay type: biochemical; conditions: for IC50: Tubulin was at 10 μM, read-out: tubulin IC50 ± SD (inhibition of tubulin polymerization)
Method: Briefly, tubulin polymerization was followed turbidimetrically at 350 nm in Beckman model DU7400 and DU7500 recording spectrophotometers equipped with electronic temperature controllers. […] Samples were pre-incubated for 15 min at 30° C. and chilled on ice. GTP (final concentration, 0.4 mmol/L) was added to each reaction mixture, and these were placed in cuvettes held at 0° C. Baselines were established, the temperature was raised to 30° C.

[1] = test system: seven pancreatic cell lines; experiment: MTT cytotoxicity, panel of seven pancreatic cancer cell lines; assay type: cell-based; conditions: seven pancreatic cell lines
Method: (§1) Eight of these analogs 6d, 6h, 6n, 6g, 7b, 7d, 8g, and 8h were tested for their cytotoxicity in seven pancreatic cell lines ASPC1, Panc1, Panc203, Panc430, Pane 1005, MiaPaca2, and HS766T using MTT assay. Cells were trypsinized, seeded at 5×10^3 cells/well in 96-well plate and allowed to grow for 24 hours before the treatment with exponential increasing concentrations of drugs in the presence of 10% FBS. After a 96-hours period of treatment, 20 μl of MTT solution (5 mg/ml in PBS) were added to each well, and the plates were then incubated for 3 hours at 37° C. Medium was then replaced with 100 μl of DMSO per well. Plates were shaken and the optical density was measured at 570 nm using a multiwell plate reader (Bio-Rad, Model 550, Bio-Rad Inc., Hercules, Calif.). Each experiment was performed in triplicate for each drug concentration and was carried out independently at least 3 times. The IC50 value was defined as the concentration needed for a 50% reduction in the absorbance calculated based on the survival curves. Response to drug treatment was assessed by standardizing treatment groups to untreated controls. Compounds activity was compared with compound 1.
(§2) Table 2 (Growth Inhibition of Pancreatic Cancer Cell Lines by BPU and BPTU Analogues (IC50) a) compares the cytotoxicity of a series of new derivatives against a panel of seven pancreatic cancer cell lines, as determined by MTT assay. See, Mosmann, T., J. Immunol. Methods 65:55-63 (1983).

Panc203 = experiment: MTT growth inhibition, pancreatic cell line Panc203; assay type: cell-based; conditions: Panc203; for IC50: Homo sapiens, MTT assay, 96 h treatment, average of three independent experiments
Method: as §1, §2

CWR22R = experiment: MTT growth inhibition, prostate cancer cell line CWR22R; assay type: cell-based, human; conditions: for IC50: Homo sapiens, 22Rv1, MTT assay, average of three independent experiments
[2] = test system: 11 pancreatic cancer cell line panel; experiment: Clonogenic growth, pancreatic cancer cell line panel; assay type: cell-based; conditions: doses above 0.5 μmol/L
Method: The cell lines ASPC1, MiaPaca2, HS766T, and L36PL were obtained from the American Tissue Culture Collection and are derived from pancreas carcinomas. The cell lines Panc1, Panc203, and Panc1005 are low-passage pancreas cell lines. The cell lines XPA3 and XPA4 are lowpassage. The cell lines E3LZ10 and E3JD13 are lowpassage pancreas cell lines. For clonogenic assessment, 500 cells per well were seeded in six-well plates with enriched RPMI (10% fetal bovine serum+1% penicillin/streptomycin) and exposed to increasing drug concentrations for 96 h. After this, the drug was removed, and the cells were allowed to grow for 14 days before manual colony counting. Each experiment was done in duplicate for each drug concentration and was carried out independently at least thrice. For MAPT protein and mRNA expression analysis, the cell lines were grown in six-well plates with enriched RPMI. When the cells reached a 60% to 70% confluence, they were washed twice with chilled PBS; lysis buffer was added to the plates; and the cells were scraped for protein extraction. An identical experimental set was lysed with RLT (Qiagen) for mRNA extraction.
Clonogenic growth was impaired at concentrations between 0.01 and 0.5 μmol/L (FIG. 35B), with no colony formation at higher doses in 9 of the 11 cell lines. […] Two isoforms of MAPT protein were detected (45 and 65 kDa). […]

## O=C(NC(=O)c1ccccc1[N+](=O)[O-])Nc1ccc(Sc2ncc(Br)cn2)cc1 [Compound 6n, 1-[4-(5-Bromopyrimidin-2-ylsulfanyl)phenyl]-3-(2-nitrobenzoyl)-urea]
tubulin
  potency as inhibitor of tubulin assembly relative to 7d: twice as potent
  IC50: 2100 nM
[1]
  potency relative to compound 1, pancreatic cell lines: 20 time
Panc203
  IC50: 700 nM
  increase in potency over 6m: 14 fold
CWR22R; CWR22R
  increase in potency over 6m: 100 fold
CWR22R
  IC50: 50 nM
[2]
  cell lines with no colony formation at higher doses: 9 of the 11

## Nc1ccccc1C(=O)NC(=O)Nc1ccc(Sc2ncc(Br)cn2)cc1 [Compound 7d]
tubulin
  IC50: > 40000 nM
[1]
  potency relative to compound 1, pancreatic cell lines: 20 time
Panc203
  IC50: 85 nM
  increase in activity compared to 7c: > 117 fold
CWR22R
  IC50: 500 nM
[2]
  cell lines with no colony formation at higher doses: 9 of the 11
